Data as given in article PMC7397155, “Comparison of Chemotherapeutic Activities of Rhodamine-Based GUMBOS and NanoGUMBOS” (Molecules, 2020).

Legend:
MDA-MB-231 cancer cells = assay: MTT cell viability assay, MDA-MB-231 breast cancer cells; format: cell-based, human; details: 48 h incubation
Method: (§1) Hormone-independent breast adenocarcinoma (MDA-MB-231), hormone-dependent breast adenocarcinoma (MCF7), human pancreatic carcinoma (Mia-Paca), and normal human fibroblast cell lines were purchased from American […] Culture Collection (ATCC, Manassas, VA, USA). Cell lines were cultured to 90% confluence using ATTC guidelines for cell culture prior to experimentation.
A 96 well plate was seeded with 5000 cells/well and incubated for 24 h to allow attachment. […] These compounds were then incubated into the cells for 48 h, followed by MTT assay to determine cell viability. Firstly, 15 µL of the MTT dye solution was incubated in the cells for 3 h. The MTT dye reacts with NADPH present in live cells to form an insoluble purple formazan product. Subsequently, 100 µL of a stop solution was added to solubilize this product and halt the enzymatic reaction between NADPH and MTT. Cells were then incubated with stop solution for 1 h. The absorbance of the formazan was then measured at 570 nm using a microplate spectrophotometer. Cell viability is reported as the ratio between experimental groups and a control normalized to 100%. All measurements were performed in triplicate measurements to obtain standard error, and the reported cell viability is the average of these measurements. The IC50 was calculated using the formula:
(§2) ((0.5−(f(a))×(b−a)+(f(b)−f(a))×a))/(f(b)−f(a)) where a is the concentration where the cell viability is above 50%, b is the concentration where the cell viability is below 50%, and f(a) and f(b) are respectively the cell viability percentages *0.01 at concentration a and b respectively.

[1] = Octanol buffer partition coefficient; format: physicochemical; details: 1-octanol / pH 7.4 phosphate-citric acid buffer, 48 h stirring
Method: Into a 20 mL vial, 1-Octanol is mixed with a pH 7.4 phosphate-citric acid buffer and stirred overnight. The two layers were separated and then a calibration curve was generated for each compound in 1-octanol using various concentrations. The phosphate-citric acid buffer was then added to one of the concentrations (Ci) and this mixture was stirred for 48 h. Subsequently, absorbance in the octanol layer was measured and the concentration (Co) calculated using the calibration curves. Later, the equation Ci − C0 = Cw was used to calculate the aqueous concentration (Cw). The octanol–water partition coefficient was then calculated using the equation Kow = […]/Cw.

Water solubility study = format: physicochemical; details: water solubility at physiological pH
Method: Approximately fifty milliliters of water were added to three milligrams of GUMBOS. Absorbance measurements were then acquired over time until the absorbance reached a plateau. A calibration curve for an aqueous solution of GUMBOS was then generated at a soluble concentration, and the slope of the curve was used to calculate the solubility concentration. The solubility constant (Ksp) was then calculated using this concentration.

Hs578Bst normal cells = assay: MTT cell viability assay, Hs578Bst normal breast cells; format: cell-based, human; details: for IC50: RB and R110 GUMBOS and parent dyes, normal breast cells, 48 h incubation, MTT
MCF7 cancer cells = assay: MTT cell viability assay, MCF7 breast cancer cells; set-up: species or system human; details: 48 h incubation
Method: as §1
(§3) A 96 well plate was seeded with 5000 cells/well and incubated for 24 h to allow attachment. Serial dilution from 100 µM to 0 µM was performed for each compound. These compounds were then incubated into the cells for 48 h, followed by MTT assay to determine cell viability. Firstly, 15 µL of the MTT dye solution was incubated in the cells for 3 h. The MTT dye reacts with NADPH present in live cells to form an insoluble purple formazan product. Subsequently, 100 µL of a stop solution was added to solubilize this product and halt the enzymatic reaction between NADPH and MTT. Cells were then incubated with stop solution for 1 h. The absorbance of the formazan was then measured at 570 nm using a microplate spectrophotometer. Cell viability is reported as the ratio between experimental groups and a control normalized to 100%. All measurements were performed in triplicate measurements to obtain standard error, and the reported cell viability is the average of these measurements. The IC50 was calculated using the formula:
as §2

[2] = Zeta potential of nanoGUMBOS; format: physicochemical; details: nanoGUMBOS at physiological pH (7.4)
Excerpt: Following examination of the hydrophobicity of these GUMBOS, nanoGUMBOS were synthesized using a simple reprecipitaiton method as described in the experimental section. TEM images in Figure 2 are a display of spherical nanoparticles with diameters of ~100 nm for both R123 and SNAFR.

MiaPaca cancer cells = assay: MTT cell viability assay, MiaPaca pancreatic cancer cells; set-up: species or system human; details: 48 h incubation
Method: as §1, §3, §2

[3] = Homo sapiens, MDA-MB-231, 48 h, RB and R110 GUMBOS and parent dyes
[4] = RB and R110 GUMBOS and parent dyes
[5] = R123- and SNAFR-5-based nanoGUMBOS and parent dyes

N=c1ccc2c(-c3ccccc3C(=O)O)c3ccc(N)cc3oc-2c1 [[R110][Cl], rhodamine 110 chloride, reference compound]
IC50 (MDA-MB-231 cancer cells; [3]): 781 µM | IC50 (MDA-MB-231 cancer cells; [4]): 791.2 ± 2.7 µM | Log Kow [1]: 0.22 | solubility thermodynamic (Water solubility study): > 700 µM | IC50 (Hs578Bst normal cells; Homo sapiens, Hs578Bst): 836.1 ± 5.3 µM

COC(=O)c1ccccc1-c1c2ccc(N)cc2[o+]c2cc(N)ccc12.O=S(=O)([N-]S(=O)(=O)C(F)(F)C(F)(F)F)C(F)(F)C(F)(F)F [[R123][BETI]]
IC50 (MCF7 cancer cells; [5]): > 100 µM | Zeta Potential [2]: −16.8 ± 1.1 mV | IC50 (MDA-MB-231 cancer cells; [5]): 17.4 ± 3.7 µM | Log Kow [1]: 1.1 | IC50 (MiaPaca cancer cells; [5]): 1.6 ± 0.7 µM

COC(=O)c1ccccc1-c1c2ccc(=N)cc-2oc2cc(N)ccc12 [[R123][Cl], rhodamine 123, reference compound]
IC50 (MCF7 cancer cells; Homo sapiens, MCF7, R123- and SNAFR-5-based nanoGUMBOS and parent dyes): > 100 µM | IC50 (MDA-MB-231 cancer cells; Homo sapiens, MDA-MB-231, R123- and SNAFR-5-based nanoGUMBOS and parent dyes): 24.3 ± 2.2 µM | Log Kow [1]: 0.25 | IC50 (MiaPaca cancer cells; Homo sapiens, MIA PaCa-2, R123- and SNAFR-5-based nanoGUMBOS and parent dyes): 3.1 ± 1.1 µM | Toxicity towards Hs578Bst normal cells (Hs578Bst normal cells; result in words, Figure 6): slight toxicity towards normal cells

COC(=O)c1ccccc1-c1c2ccc(=[NH2+])cc-2oc2cc(N)ccc12.c1ccc([B-](c2ccccc2)(c2ccccc2)c2ccccc2)cc1 [[R123][TPB]]
IC50 (MCF7 cancer cells; [5]): > 100 µM | Zeta Potential [2]: −16.5 ± 1.4 mV | IC50 (MDA-MB-231 cancer cells; [5]): 20.6 ± 3.5 µM | Log Kow [1]: 0.8 | IC50 (MiaPaca cancer cells; [5]): 2.5 ± 0.9 µM

CCN(CC)c1ccc2c(-c3ccccc3C(=O)O)c3ccc(=[N+](CC)CC)cc-3oc2c1.O=S(=O)([N-]S(=O)(=O)C(F)(F)C(F)(F)F)C(F)(F)C(F)(F)F [[RB][BETI]]
IC50 (MDA-MB-231 cancer cells; [4]): 89.5 ± 3.4 µM | Log Kow [1]: 1.25 | IC50 (Hs578Bst normal cells): 540 ± 6.2 µM

CCN(CC)c1ccc2c(-c3ccccc3C(=O)O)c3ccc(=[N+](CC)CC)cc-3oc2c1 [[RB][Cl], Rhodamine B chloride, reference compound]
IC50 (MDA-MB-231 cancer cells; [3]): 291 ± 1.2 µM | Log Kow [1]: 1.1 | IC50 (Hs578Bst normal cells; Homo sapiens, Hs578Bst): 500 ± 5.2 µM

CCN(CC)c1ccc2c(-c3ccccc3C(=O)O)c3ccc(=[N+](CC)CC)cc-3oc2c1.c1ccc([B-](c2ccccc2)(c2ccccc2)c2ccccc2)cc1 [[RB][TPB]]
IC50 (MDA-MB-231 cancer cells; [4]): 77.5 ± 5.7 µM | Log Kow [1]: 1.6 | IC50 (Hs578Bst normal cells): 533.7 ± 3.3 µM
